Source: patent US9113629B2, “4-amino-6-(4-substituted-phenyl)-picolinates and 6-amino-2-(4-substituted-phenyl)-pyrimidine-4-carboxylates and their use as herbicides” (DOW AGROSCIENCES LLC, priority 2013, dated 2015)
Read-outs that look alike come from different tables or passages of the source.

What was measured:
[1] = test system: Key Grass and Sedge Weeds as well as Grass Crops; experiment: Post-emergent Test II herbicidal activity (Table 6); assay type: in vivo; conditions: post-emergence, 336 h; for pest or weed control at 70 g/ha: 70 g ai/ha; for pest or weed control at 140 g/ha: 140 g ai/ha
Summary of the method: (§1)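 Plants grown in Metro-Mix 360 (pH 6.0–6.8) in a greenhouse (~15 h photoperiod, 23–29 °C day) to first or second true leaf stage, then sprayed with compound in acetone/DMSO/aqueous crop-oil-surfactant carrier at 187 L/ha by track sprayer. Injury visually scored 0–100% versus untreated plants after 14 d.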

[2] = test system: Key Broadleaf Weed and Crop Species; experiment: Post-emergent Test II herbicidal activity (Table 5); assay type: in vivo; conditions: post-emergence, 336 h, 14 days after application; for pest or weed control at 70 g/ha: application rate 70 g ai/ha; for pest or weed control at 140 g/ha: application rate 140 g ai/ha
Summary of the method: as §1

[3] = CYPES: yellow nutsedge (Cyperus esculentus), read-out: Visual Growth Reduction (%) 14 Days After Application, CYPES
[4] = DIGSA: crabgrass (Digitaria sanguinalis), read-out: Visual Growth Reduction (%) 14 Days After Application, DIGSA
[5] = ECHCG: barnyardgrass (Echinochloa crus-galli), read-out: Visual Growth Reduction (%) 14 Days After Application, ECHCG
[6] = ORYSA: rice (Oryza sativa), crop, read-out: Visual Growth Reduction (%) 14 Days After Application, ORYSA
[7] = SETFA: giant foxtail (Setaria faberi), read-out: Visual Growth Reduction (%) 14 Days After Application, SETFA
[8] = SORVU: grain sorghum (Sorghum vulgare), read-out: Visual Growth Reduction (%) 14 Days After Application, SORVU
[9] = TRZSS (wheat, Triticum aestivum), crop, read-out: Visual Growth Reduction (%) 14 Days After Application, TRZSS
[10] = ZEAMX: maize, corn (Zea mays), crop, read-out: Visual Growth Reduction (%) 14 Days After Application, ZEAMX
[11] = ABUTH: velvetleaf (Abutilon theophrasti), read-out: Visual Growth Reduction (%) 14 Days After Application, ABUTH
[12] = AMARE: redroot pigweed (Amaranthus retroflexus), read-out: Visual Growth Reduction (%) 14 Days After Application, AMARE
[13] = BRSNN: oilseed-rape, canola (Brassica napus), read-out: Visual Growth Reduction (%) 14 Days After Application, BRSNN
[14] = CHEAL: lambsquarters (Chenopodium album), read-out: Visual Growth Reduction (%) 14 Days After Application, CHEAL
[15] = EPHHL: wild poinsettia (Euphorbia heterophylla), read-out: Visual Growth Reduction (%) 14 Days After Application, EPHHL
[16] = HELAN: sunflower (Helianthus annuus), read-out: Visual Growth Reduction (%) 14 Days After Application, HELAN
[17] = VIOTR: wild pansy (Viola tricolor), read-out: Visual Growth Reduction (%) 14 Days After Application, VIOTR

Structure (SMILES)	melting point [°C]	pest or weed control at 70 g/ha [1, 3] [%]	pest or weed control at 140 g/ha [1, 3] [%]	pest or weed control at 70 g/ha [1, 4] [%]	pest or weed control at 140 g/ha [1, 4] [%]	pest or weed control at 70 g/ha [1, 5] [%]	pest or weed control at 140 g/ha [1, 5] [%]	pest or weed control at 70 g/ha [1, 6] [%]	pest or weed control at 140 g/ha [1, 6] [%]	pest or weed control at 70 g/ha [1, 7] [%]	pest or weed control at 140 g/ha [1, 7] [%]	pest or weed control at 70 g/ha [1, 8] [%]	pest or weed control at 140 g/ha [1, 8] [%]	pest or weed control at 70 g/ha [1, 9] [%]	pest or weed control at 140 g/ha [1, 9] [%]	pest or weed control at 70 g/ha [1, 10] [%]	pest or weed control at 140 g/ha [1, 10] [%]	pest or weed control at 70 g/ha [2, 11] [%]	pest or weed control at 140 g/ha [2, 11] [%]	pest or weed control at 70 g/ha [2, 12] [%]	also measured
C#Cc1ccc(-c2nc(N)c(OC)c(C(=O)OC)n2)c(F)c1F [Compound 84]	214 to 217	0 to 29	0 to 29	0 to 29	0 to 29	0 to 29	0 to 29	0 to 29	0 to 29	0 to 29	0 to 29	0 to 29	0 to 29	0 to 29	0 to 29	0 to 29	0 to 29	0 to 29	0 to 29	0 to 29	pest or weed control at 140 g/ha [2, 12]: 0 to 29%; pest or weed control at 70 g/ha [2, 13]: 0 to 29%; pest or weed control at 140 g/ha [2, 13]: 0 to 29%; pest or weed control at 70 g/ha [2, 14]: 0 to 29%; pest or weed control at 140 g/ha [2, 14]: 0 to 29%; pest or weed control at 70 g/ha [2, 15]: 0 to 29%; pest or weed control at 140 g/ha [2, 15]: 0 to 29%; pest or weed control at 140 g/ha [2, 16]: 60 to 74%; pest or weed control at 70 g/ha [2, 17]: 0 to 29%; pest or weed control at 140 g/ha [2, 17]: 0 to 29%
COc1c(N)nc(-c2ccc(I)c(F)c2F)nc1C(=O)O [Compound 89]	119 to 121	45 to 59	95 to 100	45 to 59	60 to 74	85 to 94	85 to 94	0 to 29	60 to 74	85 to 94	85 to 94	85 to 94	95 to 100	0 to 29	45 to 59	45 to 59	95 to 100	85 to 94	95 to 100	85 to 94	pest or weed control at 140 g/ha [2, 12]: 95 to 100%; pest or weed control at 70 g/ha [2, 13]: 95 to 100%; pest or weed control at 140 g/ha [2, 13]: 95 to 100%; pest or weed control at 70 g/ha [2, 14]: 95 to 100%; pest or weed control at 140 g/ha [2, 14]: 95 to 100%; pest or weed control at 70 g/ha [2, 15]: 95 to 100%; pest or weed control at 140 g/ha [2, 15]: 95 to 100%; pest or weed control at 70 g/ha [2, 16]: 95 to 100%; pest or weed control at 140 g/ha [2, 16]: 95 to 100%; pest or weed control at 70 g/ha [2, 17]: 95 to 100%; pest or weed control at 140 g/ha [2, 17]: 95 to 100%
